Patent US20100083405A1, “Method For Controlling Seed Germination In Non-Dormant Seeds And Use Thereof” (priority 2008, published 2010)

Assays:
ABI5 [1] = assay: ABI5 mRNA and protein levels (Northern and Western blot) in WT seeds; format: in vivo, Arabidopsis
Method: Total RNA extraction was performed as described by Vicient and Delseny, 1999, Anal. Biochem., 268, 412-413. Northern blot hybridizations were by standard procedures; RNA immobilized on membranes was stained with methylene blue and used as a loading control (Sambrook et al., 1989, above). For ABI5, full length ORF DNA probe (SEQ ID NO: 1) were amplified from cDNA with 5′[…] (SEQ ID NO: 8) 5′ […] (SEQ ID NO: 9).
The mRNA and protein expression of ABI5 was characterized in WT (Columbia ecotype) seeds at different times after their imbibition.
Under normal conditions, ABI5 mRNA and protein levels decreased from peak levels in WT dry seeds (DS) to undetectable levels 24 h to 48 h after imbibition as shown respectively by Northern blot (2 μg of total RNA per lane) and Western blot analyses (10 μg of total protein per lane), where protein extracts were stained with red Ponceau prior to incubation with antibodies against ABI5 (Ponceau) (FIGS. 2A and 2B) (Lopez-Molina et al., 2001, above).

WT/35S::HA-ABI5 seeds [2] = settings: low ABA concentration 0.5 μM; cited from earlier work
HA-ABI5 [3] = settings: low ABA concentration 0.5 μM; cited from earlier work
[4] = system: WT/35S::HA-ABI5 plants transformed with the ind::HA-PKABA1 DNA construct; assay: Germination assay, WT/35S::HA-ABI5 transformed with ind::HA-PKABA1; format: in vivo, Arabidopsis
Method: All seed batches compared in this study were harvested on the same day from plants grown side by side (i.e. identical environmental conditions). Dry siliques were obtained about 8 weeks after planting and left for a further 4 weeks at room temperature prior to seed harvesting. Seeds were then permanently stored at 4° C. Seeds obtained in this manner lacked dormancy. A minimum of three independently grown seed batches were used for measuring percent TR and ER. For TR and ER assays, seeds were surface sterilized as described in Lopez-Molina and Chua, 2000, above, and sown in plates with MS medium containing 0.8% (wt/vol.) Bacto-Agar (Applichem). Plates were incubated in a climate-controlled room (20-25° C., 16 h light/day, light intensity 80 ME/m^2/s, humidity 70%). Between 100 and 300 seeds were examined with a Stemi 2000 (Zeiss) stereomicroscope and photographed with a high-resolution digital camera (Canon Power G6, 7.1 Megapixels) at different times of seed imbibition. Photographs were enlarged electronically for measurement of TR and ER.
The first primer contains an XhoI site and the HA sequence (MYPYDVPDYASL (SEQ ID NO: 5) of SEQ ID NO:10), while the second contains a SpeI site. Both restriction sites were used for cloning into a plasmid pER8 (AN AF309825) such as described in Zuo et al., 2000, Plant J., 24, 265-273. […]

HA-PKABA1 = HA-PKABA1 protein levels (Western blot) in seeds transformed with ind::HA-PKABA1; format: in vivo, Arabidopsis; settings: 50 μM 17β-estradiol, 48 h after seed imbibition, normal conditions
Excerpt: The first primer contains an XhoI site and the HA sequence (MYPYDVPDYASL (SEQ ID NO: 5) of SEQ ID NO:10), while the second contains a SpeI site. Both restriction sites were used for cloning into a plasmid pER8 (AN AF309825) such as described in Zuo et al., 2000, Plant J., 24, 265-273. The resulting ind::HA-PKABA1 binary vector was then transformed into previously described WT/35S::HA-ABI5 line (Zuo et al., 2000, above; Lopez-Molina et al., 2001, above). As a negative control, WT plants were transformed with the same ind::HA-PKABA1 construct.

WT/35S::HA-ABI5 seeds [5] = assay: Germination assay, WT/35S::HA-ABI5 seeds; format: in vivo, Arabidopsis
Excerpt: (§1) Wild type (WT) Arabidopsis (Columbia ecotype) was used. The transgenic Arabidopsis line (Ler ecotype) constitutively overexpressing and accumulating ABI5 protein fused to hemagglutinin (HA) peptide tag (referred to as WT/35S::HA-ABI5 plants) was generated as described in Lopez-Molina et al., 2001, above. Transgenic Arabidopsis lines were generated using the Agrobacterium tumefaciens vacuum-infiltration method (Bechtold and Pelletier, 1998, Methods Mol. Biol. 82, 259-266). Seeds (T1) from infiltrated plants were plated in selection medium as described (Zuo et al., 2000, above; Lopez-Molina et al., 2001, above). Non-dormant seeds are used in absence of seed stratification procedure. The infiltration in the plant ovule is performed following the standard “Floral Dip” (Arabidopsis protocol Edited by J M Martinez-Zapater and Julio Salina. Humana Press, “In Planta Agrobacterium-Mediated Transformation of Adult Arabidopsis thaliana Plants by Vacuum infiltration”, Page 259).
(§2) When seeds are sown under “normal conditions” it refers to conditions where seeds are imbibed in a standard germination medium and provided with light (germination assay condition below). “ABA conditions” and “low GA conditions” are respectively conditions where ABA (e.g. 5 μM) and paclobutrazol (e.g. 5 μM, PAC), an inhibitor of GA synthesis, are added to the medium. […]

WT seed = assay: Germination assay, WT seeds; format: in vivo, Arabidopsis; settings: low PAC concentrations (0.125 μM)
Excerpt: as §1, §2

HA-ABI5 [6] = assay: HA-ABI5 mobility/phosphorylation (Western blot) in WT/35S::HA-ABI5 seeds; format: in vivo, Arabidopsis
Method: (§3) The methods used were as described in Lopez-Molina et al., 2001, above.
Thus, low GA levels also stimulate ABI5 activity and phosphorylation. […] An antibody to HA was used to reveal HA-ABI5 protein. λ phosphatase was inactivated by heat (65° C. for 20 min).

ABI5 [7] = assay: ABI5 protein levels (Western blot) in gal-3 seeds; format: in vivo, Arabidopsis; settings: gal-3 seeds treated with GA, as early as 48 hours after imbibition
HA-ABI5 [8] = assay: HA-ABI5 mobility/phosphorylation (Western blot) in WT/35S::HA-ABI5 lines transformed with ind::HA-PKABA1; format: in vivo, Arabidopsis; settings: excess GA in the medium, inducer present
Method: as §3
The mobility differences of HA-ABI5 protein isolated from WT/35S::HA-ABI5 lines transformed with a ind::HA-PKABA1 DNA construct are analyzed by Western blot under the indicated germination conditions. As observed upon ABA treatment, induction of HA-PKABA1 protein triggered ABI5 phosphorylation, detected as a slower ABI5 protein mobility, which could be eliminated upon phosphatase treatment (FIG. 4B).

HA-ABI5, Q9SJN0 = molecular target: T1, HA-ABI5, Q9SJN0
T1 chain: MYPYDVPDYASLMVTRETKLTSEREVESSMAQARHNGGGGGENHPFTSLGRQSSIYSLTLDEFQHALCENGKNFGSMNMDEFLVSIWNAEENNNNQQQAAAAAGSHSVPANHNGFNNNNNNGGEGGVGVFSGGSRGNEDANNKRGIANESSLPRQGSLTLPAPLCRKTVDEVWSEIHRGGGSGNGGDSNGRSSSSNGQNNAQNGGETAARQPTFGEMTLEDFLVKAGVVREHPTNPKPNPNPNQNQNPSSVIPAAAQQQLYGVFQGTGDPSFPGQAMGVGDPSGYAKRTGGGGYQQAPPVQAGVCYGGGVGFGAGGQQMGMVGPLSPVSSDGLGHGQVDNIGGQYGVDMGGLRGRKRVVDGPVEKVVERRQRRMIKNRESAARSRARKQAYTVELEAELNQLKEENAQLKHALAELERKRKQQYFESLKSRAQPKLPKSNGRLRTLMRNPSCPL

[9] = GA 50 μM added to the germination medium with ABA

## CC1=CC(=O)CC(C)(C)[C@@]1(O)/C=C/C(C)=C\C(=O)O [ABA, abscisic acid]
ABI5 [1]; ABA 5 μM, after imbibition
  ABI5 mRNA and protein expression: stimulated
WT/35S::HA-ABI5 seeds [2]
  germination response: hypersensitive responses
HA-ABI5 [3]
  HA-ABI5 phosphorylation: triggered HA-ABI5 phosphorylation

## C[C@]12CC[C@@H]3c4ccc(O)cc4CC[C@H]3[C@@H]1CC[C@@H]2O [17β-estradiol]
[4]; 24 h to 56 h upon transfer to medium without inducer (50 μM before)
  germination after removal of the inducer: 100%
HA-PKABA1
  HA-PKABA1 protein levels: could be detected only in presence of the inducer

## CC(C)(C)[C@@H](O)[C@@H](Cc1ccc(Cl)cc1)n1cncn1 (racemic) [PAC, paclobutrazol]
WT/35S::HA-ABI5 seeds [5]; after one week on 0.125 μM PAC
  seeds germinated: less than 20%
WT seed
  WT seed germination: do not prevent WT seed germination
ABI5 [1]; 5 μM PAC, up to 96 hours after imbibition
  ABI5 expression (mRNA and protein): increased and maintained ABI5 expression
HA-ABI5 [6]; PAC 0.125 μM
  HA-ABI5 migration in SDS-PAGE gels: slower HA-ABI5 migration

## gibberellins [GA]
WT/35S::HA-ABI5 seeds [5]; [9]
  repression of seed germination imposed by ABA: did not overcome the repression of seed germination imposed by ABA
[4]; additional GA 50 μM in the medium, inducer present
  inducer-imposed germination arrest: did not counteract the inducer-imposed arrest
ABI5 [7]
  ABI5 protein: could not be detected
HA-ABI5 [6]; [9]
  ABA-dependent ABI5 phosphorylation: did not alter ABA-dependent ABI5 phosphorylation
HA-ABI5 [8]
  HA-PKABA1-dependent phosphorylation of ABI5: did not prevent HA-PKABA1-dependent phosphorylation of ABI5

B1: HA-PKABA1 (protein)
chain: MYPYDVPDYASLMDRYEVVRDIGSGNFGVAKLVRDVRTREHFAVKFIERGHKIDEHVQREIMNHRSLKHPNIIRFKEVVLTPTHLAIVMEYASGGELFQRICNAGRFSEDEGRFFFQQLISGVSYCHSMQVCHRDLKLENTLLDGSVAPRLKICDFGYSKSSVLHSQPKSTVGTPAYIAPEVLSRREYDGKVADVWSCGVTLYVMLVGAYPFEDPDEPRNFRKTIARILSVQYSVPDYVRVSMDCIHLLSRIFVGNPQQRITIPEIKNHPWFLKRLPVEMTDEYQRGMQLADMNTPSQSLEEAMAIIQEAQKPGHNALGLAGQVACLGSMDLDDIDFDVDDIDIENSGDFVCPL
HA-ABI5, Q9SJN0
  ABI5 phosphorylation in planta, seen as slower HA-ABI5 mobility on Western blot (SDS-PAGE), sensitive to phosphatase: induction of HA-PKABA1 protein triggered ABI5 phosphorylation, detected as a slower ABI5 protein mobility, which could be eliminated upon phosphatase treatment
